The results in this text go back to patent US11795177B2, “Substituted quinoline analogs as aldehyde dehydrogenase 1A1 (ALDH1A1) inhibitors” (THE UNITED STATES OF AMERICA, AS REPRESENTED BY THE …, priority 2017, dated 2023).

One assay addresses T1, ALDH1A1 enzyme (Homo sapiens, UniProt P00352).
T1 sequence (P00352 1-501): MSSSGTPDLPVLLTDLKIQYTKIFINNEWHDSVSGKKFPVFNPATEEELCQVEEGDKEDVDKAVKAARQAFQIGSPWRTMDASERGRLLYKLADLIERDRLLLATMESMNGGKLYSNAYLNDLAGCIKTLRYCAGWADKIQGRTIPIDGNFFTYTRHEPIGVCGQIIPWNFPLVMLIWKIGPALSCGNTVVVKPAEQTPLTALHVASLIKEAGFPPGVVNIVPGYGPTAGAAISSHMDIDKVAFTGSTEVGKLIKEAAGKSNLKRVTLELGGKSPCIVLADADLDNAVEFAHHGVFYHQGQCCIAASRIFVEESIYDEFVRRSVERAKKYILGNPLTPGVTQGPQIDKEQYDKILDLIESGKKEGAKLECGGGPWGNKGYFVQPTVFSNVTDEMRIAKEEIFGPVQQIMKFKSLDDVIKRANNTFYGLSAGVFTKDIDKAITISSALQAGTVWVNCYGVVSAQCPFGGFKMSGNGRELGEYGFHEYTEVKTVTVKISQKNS
Kind of assay: ALDH1A1 enzymatic assay (in vitro). In kind it is biochemical. The following applies: ALDH1A1 enzyme 20 nM, NAD+ 1 mM, propionaldehyde 80 μM; read-out: ALDH1A1 IC50. On the procedure:
Example 358. ALDH1A1 Enzymatic Assay (In Vitro Assay)
3 μL of ALDH1A1 enzyme (final concentration 20 nM) or assay buffer (100 mM HEPES pH 7.5 with 0.01% Tween 20) were dispensed into a 1,536-well solid-bottom black plate (Greiner Bio One, Monroe, N.C.) followed by pin-tool transfer (23 nL) of candidate inhibitors (final concentration range 968 pM to 57.2 μM) and control (Bay 11-7085, final concentration range 1.31 nM to 2.86 μM). Samples were incubated (RT, protected from light) for 15 minutes followed by a 1 μL substrate addition of NAD^+ and Propionaldehyde (final concentrations of 1 mM and 80 μM, respectively). Plates were centrifuged at 1,000 rpm for 15 seconds, then read in kinetic mode on a ViewLux High-throughput CCD imager (Perkin-Elmer) equipped with standard UV fluorescence optics (340 nm excitation, 450 nm emission) for 10 minutes. The change in fluorescence intensity over the 10-minute reaction period was normalized against no-inhibitor and no-enzyme controls and the resulting percent inhibition data were fitted for biological activity.

A further assay has as its system MIA PaCa-2 cells. Kind of assay: MIA PaCa2 cell-based assay (1,536-well high-content imaging ALDEFLUOR assay). Also on record: species or system human. The following applies: Homo sapiens, 0.5 h, ALDEFLUOR BAAA substrate 500 nM, 30 minutes. The method, boiled down: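 MIA PaCa-2 cells (1,000/well), plated overnight, given BAAA substrate (500 nM) plus Hoechst 33342 (0.5 nM), then compound (16-point, 1.4 nM–47.8 μM final; 0.5% DMSO). After 30 min at 37° C, ALDH activity imaged by high-content microscopy as BAA-retaining (FITC) cells versus Hoechst-stained nuclei.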

Counter-ions that a name gives are not always drawn.

The term IC50 denotes the midpoint of a concentration-inhibition curve.

In the case of `COc1ccc2ncc(C(=O)N3CCN(C(=O)C4CC4)CC3)c(N3CCN(c4ccncc4)CC3)c2c1` [Example 20, (4-(cyclopropanecarbonyl)piperazin-1-yl)(6-methoxy-4-(4-(pyridin-4-yl)piperazin-1-yl)quinolin-3-yl)methanone, TFA], the IC50 on ALDH1A1 enzyme is more than 10000 nM. As for `CC1(C#N)CCN(c2c(C(=O)N3CCN(C(=O)C4CC4)CC3)cnc3cc(F)c(F)cc23)CC1` [Example 126, 1-(3-(4-(cyclopropanecarbonyl)piperazine-1-carbonyl)-6,7-difluoroquinolin-4-yl)-4-methylpiperidine-4-carbonitrile], the IC50 is less than 500 nM on ALDH1A1 enzyme and 1000 to 10000 nM with MIA PaCa-2 cells. The corresponding values for `CCN(CC)C(=O)N1CCN(C(=O)c2cnc3ccc(F)cc3c2N2CCC(C)(C#N)CC2)CC1` [Example 154, 4-(4-(4-cyano-4-methylpiperidin-1-yl)-6-fluoroquinoline-3-carbonyl)-N,N-diethylpiperazine-1-carboxamide] are less than 500 nM and 1000 to 10000 nM. Regarding `CS(=O)(=O)N1CCN(C(=O)c2cnc3ccc(F)cc3c2N2CCN(S(=O)(=O)c3ccccc3)CC2)CC1` [Example 254, (6-fluoro-4-(4-(phenylsulfonyl)piperazin-1-yl)quinolin-3-yl)(4-(methylsulfonyl)piperazin-1-yl)methanone], the half-maximal inhibitory concentration (IC50) at ALDH1A1 enzyme and with MIA PaCa-2 cells was less than 500 nM each time. As for `CC1(C#N)CCN(c2c(C(=O)N3CCN(C(=O)N4CCCC4)CC3)cnc3c(F)cc(F)cc23)CC1` [Example 165, 1-(6,8-difluoro-3-(4-(pyrrolidine-1-carbonyl)piperazine-1-carbonyl)quinolin-4-yl)-4-methylpiperidine-4-carbonitrile], the IC50 on ALDH1A1 enzyme and with MIA PaCa-2 cells was 1000 to 10000 nM in each case. Turning to `COc1ccc2ncc(C(=O)N3CCN(C(=O)C4CC4)CC3)c(N3CCC(C)(C)CC3)c2c1` [Example 18, (4-(cyclopropanecarbonyl)piperazin-1-yl)(4-(4,4-dimethylpiperidin-1-yl)-6-methoxyquinolin-3-yl)methanone, TFA], the IC50 at ALDH1A1 enzyme is less than 500 nM; in the assay on MIA PaCa-2 cells, 1000 to 10000 nM. Consider `N#CC1(c2ccccc2)CCN(c2c(C(=O)N[C@H]3CC[C@H](O)CC3)cnc3ccc(F)cc23)CC1` [Cpd. 325, 4-(4-cyano-4-phenylpiperidin-1-yl)-6-fluoro-N-((1R,4R)-4-hydroxycyclohexyl)quinoline-3-carboxamide], for which the half-inhibitory concentration (IC50) on ALDH1A1 enzyme and with MIA PaCa-2 cells was less than 500 nM in each case. Consider `CCNC(=O)N1CCN(C(=O)c2cnc3cc(F)c(F)cc3c2N2CCC3(CC2)OCCO3)CC1` [Example 142, 4-(6,7-difluoro-4-(1,4-dioxa-8-azaspiro[4.5]decan-8-yl)quinoline-3-carbonyl)-N-ethylpiperazine-1-carboxamide], for which the figures for the IC50 on ALDH1A1 enzyme and in the assay with MIA PaCa-2 cells were less than 500 nM and 1000 to 10000 nM, respectively. The corresponding values for `CC1(C#N)CCN(c2c(C(=O)N3CCN(S(C)(=O)=O)CC3)cnc3c(F)cc(F)cc23)CC1` [Example 135, 1-(6,8-difluoro-3-(4-(methylsulfonyl)piperazine-1-carbonyl)quinolin-4-yl)-4-methylpiperidine-4-carbonitrile] are less than 500 nM and 1000 to 10000 nM. With `COc1ccc2ncc(C(=O)N3CCN(C(=O)C4CC4)CC3)c(-n3cc(C)cn3)c2c1` [Example 35, (4-(cyclopropanecarbonyl)piperazin-1-yl)(6-methoxy-4-(4-methyl-1H-pyrazol-1-yl)quinolin-3-yl)methanone], the IC50 at ALDH1A1 enzyme was more than 10000 nM. Still for that read-out and setting: the figure for `COc1ccc2ncc(C(=O)N3CCN(C(=O)C4CC4)CC3)c(NC3CCN(C)CC3)c2c1` [Example 21, (4-(cyclopropanecarbonyl)piperazin-1-yl)(6-methoxy-4-((1-methylpiperidin-4-yl)amino)quinolin-3-yl)methanone, TFA] is more than 10000 nM; for `COc1ccc2ncc(C(=O)NC3CCN(C)CC3)c(N3CCC4(CC3)OCCO4)c2c1` [Example 16, 6-methoxy-N-(1-methylpiperidin-4-yl)-4-(1,4-dioxa-8-azaspiro[4.5]decan-8-yl)quinoline-3-carboxamide, TFA] it is 1000 to 10000 nM; for `COc1ccc2ncc(C(=O)N3CCN(C(=O)C4CC4)CC3)c(NC3CCC3)c2c1` [Example 22, (4-(cyclobutylamino)-6-methoxyquinolin-3-yl)(4-(cyclopropanecarbonyl)piperazin-1-yl)methanone, TFA] it is more than 10000 nM. Still for that read-out and setting: the figure for `COc1ccc2ncc(C(=O)N3CCN(C(=O)C4CC4)CC3)c(N3C[C@@H](C)O[C@@H](C)C3)c2c1` [Example 34, (4-(cyclopropanecarbonyl)piperazin-1-yl)(44(2S*,6R*)-2,6-dimethylmorpholino)-6-methoxyquinolin-3-yl)methanone] is more than 10000 nM; for `COc1ccc2ncc(C(=O)N3CCN(C(=O)C4CC4)CC3)c(-c3cnn(C)c3)c2c1` [Example 41, (4-(cyclopropanecarbonyl)piperazin-1-yl)(6-methoxy-4-(1-methyl-1H-pyrazol-4-yl)quinolin-3-yl)methanone] it is more than 10000 nM. On to `C[C@@H]1CN(c2c(C(=O)N3CCN(C(=O)C4CC4)CC3)cnc3ccc(F)cc23)C[C@H](C)O1` [Example 60, (4-(cyclopropanecarbonyl)piperazin-1-yl)(44(2S*,6R*)-2,6-dimethylmorpholino)-6-fluoroquinolin-3-yl)methanone], for which the IC50 at ALDH1A1 enzyme was more than 10000 nM. Turning to `CN(C)S(=O)(=O)N1CCN(C(=O)c2cnc3ccc(F)cc3c2N2CCC(C)(C#N)CC2)CC1` [Example 157, 4-(4-(4-cyano-4-methylpiperidin-1-yl)-6-fluoroquinoline-3-carbonyl)-N,N-dimethylpiperazine-1-sulfonamide], in the assay with MIA PaCa-2 cells, the 50% inhibitory concentration (IC50) is less than 500 nM.

In the assay on MIA PaCa-2 cells, `COc1ccc2c(N3CCC4(CC3)OCCO4)c(C(=O)N3CCN(C(=O)C4CC4)CC3)cnc2c1` [Example 47, (4-(cyclopropanecarbonyl)piperazin-1-yl)(7-methoxy-4-(1,4-dioxa-8-azaspiro[4.5]decan-8-yl)quinolin-3-yl)methanone] had an IC50 of 1000 to 10000 nM. Still for that read-out and setting: the figure for `O=C(c1cnc2ccc(F)cc2c1N1CCC2(CC1)CC2)N1CCN(C(=O)C2CC2)CC1` [Example 59, (4-(cyclopropanecarbonyl)piperazin-1-yl)(6-fluoro-4-(6-azaspiro[2.5]octan-6-yl)quinolin-3-yl)methanone] is more than 10000 nM; for `CCC1(C#N)CCN(c2c(C(=O)N3CCN(C(=O)C4CC4)CC3)cnc3ccc(F)cc23)CC1` [Example 202, 1-(3-(4-(cyclopropanecarbonyl)piperazine-1-carbonyl)-6-fluoroquinolin-4-yl)-4-ethylpiperidine-4-carbonitrile] it is less than 500 nM; for `N#CC1(c2ccc(-c3c(C(=O)N4CCN(C(=O)C5CC5)CC4)cnc4ccc(Cl)cc34)cc2)CC1` [Example 294, 1-(4-(6-chloro-3-(4-(cyclopropanecarbonyl)piperazine-1-carbonyl)quinolin-4-yl)phenyl)cyclopropanecarbonitrile] it is less than 500 nM. In turn, `O=C(c1cnc2ccccc2c1N1CCC2(CC1)OCCO2)N1CCN(C(=O)C2CC2)CC1` [Example 42, (4-(1,4-dioxa-8-azaspiro[4.5]decan-8-yl)quinolin-3-yl)(4-(cyclopropanecarbonyl)piperazin-1-yl)methanone] gave an IC50 with MIA PaCa-2 cells of more than 10000 nM. On the same count and under the same terms, the figure for `CC1(C#N)CCN(c2c(C(=O)N3CCN(S(C)(=O)=O)CC3)cnc3[nH]ncc23)CC1` [Example 235, 4-methyl-1-(5-(4-(methylsulfonyl)piperazine-1-carbonyl)-1H-pyrazolo[3,4-b]pyridin-4-yl)piperidine-4-carbonitrile] is more than 10000 nM; for `CS(=O)(=O)N1CCN(C(=O)c2cnc3ccc(Cl)cc3c2-c2ccc(C3(C#N)CC3)cc2)CC1` [Example 297, 1-(4-(6-chloro-3-(4-(methylsulfonyl)piperazine-1-carbonyl)quinolin-4-yl)phenyl)cyclopropanecarbonitrile] it is less than 500 nM; for `CC1(C)CC=C(c2c(C(=O)N3CCN(C(=O)C4CC4)CC3)cnc3ccc(F)cc23)CC1` [Example 77, (4-(cyclopropanecarbonyl)piperazin-1-yl)(4-(4,4-dimethylcyclohex-1-en-1-yl)-6-fluoroquinolin-3-yl)methanone] it is less than 500 nM.
